This is an account of results in US10894790B2, “Production method of thiazole derivative” (KYOWA KIRIN CO., LTD., priority 2015, dated 2021).

Read-outs that look alike come from different tables or passages of the source.

Data set [1] is described as follows: Stability test (preservation of crystal, powder X-ray diffraction). In kind it is physicochemical. As to the method:
Powder X-ray diffraction (permeation method) was measured by pulverizing a sample in an agate mortar, placing an appropriate amount thereof on a sample plate, and measuring diffraction peaks by changing the diffraction angle 2θ from 5° to 40°. The irradiate X ray used was copper Kα ray (CuKα ray), and tube voltage was set to […], tube electric current was set to 40 mA, step angle was set to 0.017°, and counting time was set to 0.56°/sec. The thermal analysis was performed by placing about 2 mg of a sample on an aluminum cell, and measuring differential scanning calorie (DSC) at a temperature rise rate of 10° C./min.
The A crystal obtained in Example 12 was preserved under the conditions of 40° C./75% RH (relative humidity) and 40° C./90% RH (relative humidity) for 6 months each, and powder X-ray diffraction was measured. […] It was confirmed that A crystal is stable even after preservation for a long term under humidified conditions of 40° C./75% RH (relative humidity) and 40° C./90% RH (relative humidity).
The HA crystal obtained in Example 11 was preserved for 2 weeks at 60° C., and then powder X-ray diffraction was measured. […] That is, a part of HA crystal is considered to undergo crystal transition to A crystal at 60° C.

Data set [2] can be described thus: Absorbability test: plasma kinetics of compound IA after oral administration. In kind it is in vivo. The conditions noted are these: male rats; for AUC0→∞ / Cmax / t1/2 / tmax / AUC(0-inf) / half-life: plasma compound IA. How it is done:
HA crystal and A crystal obtained in Examples 11 and 12 were orally administered to male rats respectively, and plasma kinetics of compound IA were evaluated.

Where [3] appears, read: male, rat, plasma, po, 10 mg/kg.

A word on the Cmax: it is the maximum level reached in the sampled fluid or tissue. Consider `Cc1ccc(C(=O)Nc2nc(-c3ccco3)c(C(=O)C3CCOCC3)s2)cn1` [A crystal], for which the “change of powder X-ray diffraction pattern after preservation” value in data set [1] (40° C./75% RH, 6 months) is given as “did not show any change”. For the same compound, in data set [1] (40° C./90% RH, 6 months), the “change of powder X-ray diffraction pattern after preservation” value was “did not show any change”. Moreover, in data set [2], the “bioavailability (in words)” value is “good bioavailability” and the “rise of plasma concentration, A crystal compared with HA crystal” value is recorded as “increased more rapidly”. Besides, in data set [2] (dose 1 mg/kg), the BA is reported as 53.7%, the “AUC0→∞” value came to 5350 ng·h/mL, the Cmax is 1410 ± 270 ng/mL and the t1/2 came out at 2.26 ± 0.26 h. The compound further had a tmax in data set [2] (dose 1 mg/kg) of 1.00 ± 0.00 h. Also, in data set [2] (dose 10 mg/kg), the BA was 51.2%, the “AUC0→∞” value amounted to 51000 ng·h/mL, the Cmax is 11400 ± 1400 ng/mL and the t1/2 is reported as 1.77 ± 0.09 h. In data set [2] (dose 10 mg/kg), the tmax is recorded as 1.67 ± 0.58 h.

One may read the AUC(0-inf) as total exposure, with the tail of the curve extrapolated. A high value points to more exposure. Usually half-life stands for how long it takes for the measured level to halve. A high value points to slow decline. Consider `Cc1ccc(C(=O)Nc2nc(-c3ccco3)c(C(=O)C3CCOCC3)s2)cn1` [HA crystal], for which the “change of powder X-ray diffraction pattern after preservation” value in data set [1] (60° C., 2 weeks) is “show a diffraction peak characteristic of A crystal”. In addition, the “bioavailability (in words)” value in data set [2] is reported as “good bioavailability”. Further, the BA in data set [2] (dose 1 mg/kg) was determined as 59.5%; in data set [2] (dose 10 mg/kg), 56.8%. The Cmax in data set [2] (male, rat, plasma, po, 1 mg/kg, dose 1 mg/kg, read-out: Cmax) was 1500 ± 100 ng/mL; in data set [2] (male, rat, plasma, po, 10 mg/kg, dose 10 mg/kg, read-out: Cmax), 10900 ± 800 ng/mL. In addition, the tmax in data set [2] (male, rat, plasma, po, 1 mg/kg, dose 1 mg/kg, read-out: tmax) is 1.33 ± 0.58 h; in data set [2] (male, rat, plasma, po, 10 mg/kg, dose 10 mg/kg, read-out: tmax), 2 h. For the same compound, the AUC(0-inf) in data set [2] (male, rat, plasma, po, 1 mg/kg) stood at 5930 ng·h/mL; in data set [2] (setting [3]), 56600 ng·h/mL. Further, the half-life is 2.08 ± 0.13 h in data set [2] (male, rat, plasma, po, 1 mg/kg) and 3.43 ± 1.14 h in data set [2] (setting [3]).
